Results as given in US20250027041A1, “COMPOSITION FOR INDUCING TRANSDIFFERENTIATION AND STEM CELLS TREATED THEREWITH” (YJ CERAPEUTICS INC., priority 2021, published 2025).

What was measured:
human UCB-MSCs = experiment: Tuj1 immunochemical assay with CtBP inhibitors; assay type: cell-based
Method: To determine CtBP1-mediated ciNSC5 differentiation by YJ102 in human UCB-MSCs, a CTBP1 mechanism by treatment with NSC95397 or 4-methylthio-2-oxobutanoate (MTOB) was analyzed by immunochemical assay. Specifically, UCB-MSCs were dispensed at 2.1×10^4 cells/well in a 12-well plate containing an 18 mm cover glass (circular) (a DMSO control group was dispensed at 3.5×10^3 cells/well). […] The culture medium was removed, washed with PBS, and fixed with 4% paraformaldehyde at room temperature for 10 minutes. After washed three times with PBS, the cells were permeabilized with PBS-T containing 0.5% Triton X-100 for 10 minutes, washed with PBS-T three times for 10 minutes each, and then blocked with a blocking solution (PBS-T containing 5% BSA and 5% goat serum) for 1 hour. Thereafter, the cells were treated with anti-Tuj1 antibody (Cat. 801201, BioLegend) diluted 1/5000 in a blocking solution and incubated at 4° C. overnight. The next day, the cells were washed 10 times for 10 minutes each with PBS-T, and then treated with anti-mouse IgG-cy3 (Cat. 111-165-003, Jackson ImmunoResearch) diluted 1/2000 in a blocking solution, and incubated for 1 hour in dark conditions. Next, the cells were washed 10 times for 10 minutes each with PBS-T, mounted with a mounting solution containing DAPI, and then observed with a confocal microscope.

CtBP1 [1] = biological target: T1, CtBP1 (Homo sapiens, UniProt Q13363); experiment: Immunoprecipitation, CtBP1 oligomerization in UCB-MSCs; assay type: cell-based; design: expressed in transfected cells; host or cells: human UCB-MSC; conditions: MTOB 300 μM
Method: To determine the effect of YJ102 on the regulation of oligomerization of C-terminal Binding Proteins (CtBPs) in human UCB-MSCs, immunoprecipitation analysis was performed. Specifically, UCB-MSCs were dispensed at 4×10^5 cells/ml in a 60 mm culture dish, and the next day, FLAG-CtBP1, HA-CtBP1, FLAG-CtBP2, and HA-CtBP1 were transfected into cells using 4 μl jetPRIME. Thereafter, the cells were treated with YJ102 (stock 30 mM in DMSO) and MTOB (stock 300 mM in DMSO) at 20 μM and 300 μM, respectively (Table 1). After 48 hours of transfection, proteins were extracted in the same manner as in Example 1-1. Protein G agarose slurry was washed with PBS and blocked with 1 ml of 1% BSA, washed with PBS, and added with 1 μg of anti-HA antibody diluted with 1.5 ml of PBS and incubated at 4° C. for 2 hours. Thereafter, the cells were centrifuged at 3,000×g for 2 minutes to remove the supernatant, washed with an IP150 buffer two times, added with 1 μg of the protein extracted above, and incubated at 4° C. overnight. After incubation, the cells were centrifuged at 3,000×g for 2 minutes to remove the supernatant, washed with PBS three times, added with 50 μl of 1 mg/ml HA peptide diluted with PBS, and incubated at room temperature for 10 minutes. […]

UCB-MSCs [2] = experiment: CellTiter-Glo proliferation assay; assay type: cell-based, human; conditions: 10, 20, or 40 μM; 3 or 5 days
Method: Thereafter, 100 μl of a CellTiter-Glo reagent prepared by mixing a CellTiter-Glo Buffer with a CellTiter-Glo substrate was added to each well of a 96-well plate, covered with a plate cover, and incubated at room temperature for 30 minutes.

UCB-MSC (Promo Cell) = experiment: Tuj1 immunochemical assay, UCB-MSC (Promo Cell); assay type: cell-based, human; conditions: 10, 20 or 30 μM, 5 days
Method: (§1) To determine whether transdifferentiation into ciNSC5, neural progenitor cells, occurred similarly even in MSCs of different origins when human UCB-MSCs were treated with YJ101, YJ102, or YJ103 for 5 days, the expression of neuronal markers in differentiated ciNSC5 was confirmed by immunochemical assay using MSCs from human adipose-derived mesenchymal stem cells (AD-MSCs), human bone marrow-derived mesenchymal stem cells ([…]) and human umbilical cord blood-derived mesenchymal stem cells (UCB-MSCs; Promo Cells). Specifically, AD-MSC (StemPro™ Human Adipose-Derived Stem Cell, Gibco, Passage #6) was incubated in a MesenPRO RS™ medium, BM-MSC (ATCC, Passage #6) was incubated in a Mesenchymal Stem Cell Basal Medium for Adipose, Umbilical and Bone Marrow-derived MSC (Cat. PCS-500-030, ATCC) medium, and UCB-MSC (Promo Cell, Passage #6) was incubated in a CellCor™ CD MSC (Cat. YSP001, Xell Therapeutics) medium, and then dispensed at 2.1×10^4 cells/well in a 12-well plate with an 18 mm cover glass (circular) (DMSO control group was dispensed at 3.5×10^3 cells/well). […] The culture medium was removed, washed with PBS, and then fixed with 4% paraformaldehyde at room temperature for 10 minutes. After washed three times with PBS, the cells were permeabilized with PBS-T containing 0.5% Triton X-100 for 10 minutes, washed with PBS-T three times for 10 minutes each, and then blocked with a blocking solution (PBS-T containing 5% BSA and 5% goat serum) for 1 hour. Thereafter, the cells were treated with anti-Tuj1 antibody (Cat. 801201, BioLegend) diluted 1/5000 in a blocking solution and incubated at 4° C. overnight. The next day, the cells were washed 10 times for 10 minutes each with PBS-T, and then treated with anti-mouse IgG-cy3 diluted 1/2000 in a blocking solution, and incubated for 1 hour in dark conditions. Next, the cells were washed 10 times for 10 minutes each with PBS-T, mounted with a mounting solution containing DAPI, and then observed with a confocal microscope.

CtBP1 [3] = biological target: T1, CtBP1; experiment: DARTS assay, CtBP1; assay type: binding; design: expressed in transfected cells; host or cells: human UCB-MSC (Kang Stem Cell), lysate; conditions: for overexpressed CtBP1 (flag-CtBP1) protection from degradation by pronase (DARTS): FLAG-CtBP1 transfected UCB-MSC lysate, YJ101 (20 or M), YJ102 (20 or 30 μM), YJ103 (20 or 40 μM); for binding to CtBP1: human UCB-MSC
Method: To identify proteins binding to compounds of the present invention, YJ101 (Chemical Formula 1), YJ102 (Chemical Formula 2), and YJ103 (Chemical Formula 3), in human umbilical cord blood-derived mesenchymal stem cells (UCB-MSCs), DART assay was performed. Specifically, UCB-MSCs (Kang Stem Cell, Passage #6) were dispensed into a 100 mm culture dish and incubated in a KSB-3 medium (Cat. K3901, Kang Stem Cell) containing 10% FBS (Cat. 16000044), and then collected and washed with PBS. Thereafter, the cells were added with an IP50 lysis buffer [50 mM Tris-HCl (pH 7.4), 150 mM NaCl, 2 mM MgCl2, and 0.1% NP40], sonicated, and centrifuged at 13,000×g for 10 minutes at 4° C. to obtain the supernatant. The supernatant was added with 1/10 volume of 10×TNC buffer [500 mM Tris-HCl (pH 8.0), 500 mM NaCl, and 100 mM CaCl2)], and protein concentration was measured using a Bradford method. Thereafter, 9 μl of a cell lysate and 1 μl of YJ101 (20 or M), YJ102 (20 or 30 μM), or YJ103 (20 or 40 μM) were mixed in a microcentrifuge tube and incubated at room temperature for 1 hour. A control group was treated with 1 μl of DMSO. After incubation, 1 μl (1 mg/ml) of Pronase (Cat. 10 165 921 001, Roche) diluted to 1 mg/ml using a 1×TNC buffer was added to the microcentrifuge tube and incubated at 37° C. for 15 minutes. After incubation, ⅕ volume of a 5×SDS-PAGE loading buffer was added, heated at 100° C. for 5 minutes, and then SDS-PAGE and Coomassie blue staining were performed. In addition, UCB-MSCs were dispensed at 4×10^5 cells/ml in a 60 mm culture dish, and after 24 hours, 4 μg of FLAG-CtBP1 or FLAG-CtBP2 DNA was transfected using 4 μl of jetPRIME. After 48 hours, the cells were collected, and proteins were extracted and quantified using the same method as above. DARTS assay was performed with the cell lysate of CtBP1 and Y102 labeled with FLAG, and Western blot assay was performed with a flag antibody (Cat. F3165, Sigma).

UCB-MSCs [4] = experiment: Tuj1 immunochemical assay, direct conversion of UCB-MSCs into ciNSC5; assay type: cell-based, human; conditions: 30 μM, 5 days; for expression of Tuj1: UCB-MSC
Method: Immunochemical assay was performed to confirm whether UCB-MSCs were transdifferentiated into ciNSC5, Tuj1-positive neural progenitor cells, by the compounds of the present invention, YJ101, YJ102, and YJ103. Specifically, UCB-MSCs were dispensed at 2.1×10^4 cells/well in a 12-well plate containing an 18 mm cover glass (a DMSO control group was dispensed at 3.5×10^3 cells/well). […] The culture medium was removed, washed with PBS, and then fixed with 4% paraformaldehyde at room temperature for 10 minutes. After washed three times with PBS, the cells were permeabilized with PBS-T containing 0.5% Triton X-100 for 10 minutes, washed with PBS-T three times for 10 minutes each, and then blocked with a blocking solution (PBS-T containing 5% BSA and 5% goat serum) for 1 hour. Thereafter, the cells were treated with anti-Tuj1 antibody (Cat. 801201, BioLegend) diluted 1/5000 in a blocking solution and incubated at 4° C. overnight. The next day, the cells were washed 10 times for 10 minutes each with PBS-T, and then treated with anti-mouse IgG-FITC diluted 1/500 in a blocking solution, and incubated for 1 hour in dark conditions. Next, the cells were washed 10 times for 10 minutes each with PBS-T, mounted with a mounting solution containing DAPI, and then observed with a confocal microscope.

BM-MSC = experiment: Tuj1 immunochemical assay, BM-MSC; assay type: cell-based, human; conditions: 10, 20 or 30 μM, 5 days
Method: as §1

AD-MSC = experiment: Tuj1 immunochemical assay, AD-MSC; assay type: cell-based, human; conditions: 10, 20 or 30 μM, 5 days
Method: as §1

Row | Structure (SMILES) | expression of Tuj1 in YJ102-treated ciNSC5 (human UCB-MSCs; 300 μM MTOB with 30 μM YJ102, 5 days) | YJ102-induced oligomerization of CtBP1 (CtBP1 [1]) | cell proliferation (CellTiter-Glo) (UCB-MSCs [2]) | expression of Tuj1 (UCB-MSC (Promo Cell)) | overexpressed CtBP1 (flag-CtBP1) protection from degradation by pronase (DARTS) (CtBP1 [3]) | binding to CtBP1 (CtBP1 [3]) | direct conversion from UCB-MSCs to ciNSC5 (UCB-MSCs [4]) | expression of Tuj1 (UCB-MSCs [4]) | expression of Tuj1 (BM-MSC) | expression of Tuj1 (AD-MSC) | expression of Tuj1 in YJ102-treated ciNSC5 (human UCB-MSCs; 10 μM NSC95397 with 30 μM YJ102, 5 days)
1 | CSCCC(=O)C(=O)O [MTOB, 4-methylthio-2-oxobutanoate, reference compound] | reduced | inhibited | – | – | – | – | – | – | – | – | –
2 | CCc1ccc(N(C(=O)CCC(=O)OC)c2nc3cc(Cl)ccc3o2)cc1 [YJ103] | – | – | reduced cell proliferation in a concentration-dependent manner | increased | protected | bound to CtBP1 | induced direct conversion | increased | increased | increased | –
3 | CCc1ccc(N(C(=O)COC(C)=O)c2nc3cc(Cl)ccc3o2)cc1 [YJ101] | – | – | reduced cell proliferation in a concentration-dependent manner | increased | protected | bound to CtBP1 | induced direct conversion | increased | increased | increased | –
4 | O=C1C(SCCO)=C(SCCO)C(=O)c2ccccc21 [NSC95397] | – | – | – | – | – | – | – | – | – | – | reduced
